# Several values for one entry are separate records, joined by “and”; a condition that tells them apart may be missing. Equal values may be shown once.
# Experiments:
# Type in all cases: cell-based
# [1] = tested on: MDA-MB-231 cells; test: Cell cycle analysis, propidium iodide flow cytometry; conditions: treated at IC50 concentration, 48 h
# From the text: (§1) The results are indicated as a dot plot graph with four quadrant images (Figure 5B). […] However, both compounds also raised the necrotic percent by 1.8- and 2.8-fold, respectively, compared to non-treated cells. Overall, these findings implied that compound 7 could exert anticancer activity by producing cell cycle arrest at the G2/M phase and inducing apoptosis.
# (§2) An Epics XL-MCL™ Flow Cytometer and Flowing software 2012 were used to count and analyze stained cells. The Supplementary file contains detailed descriptions of the flow cytometric analysis of cell-cycle distribution and cellular apoptosis. […]
# (§3) 1.3.Cell cycle and apoptosis screening […]
# (§4) investigated using an Ab-139418 propidium iodide flow cytometry kit and an Annexin-V assay and biparametric cytofluorimetric analysis, respectively, as instructed by the manufacturer. IC50s of both 7 and […]
# Cytometer and Flowing software were used to count and analyze stained cells. The Supplementary file contains detailed descriptions of the flow cytometric analysis of cell-cycle distribution and cellular apoptosis.
# 1.3.1. Cell cycle analysis […]
# a six-well plate containing MDA-MB-231 breast cancer cells was seeded with 1 X 10^5 cells per well and then […]
# Following that, cells were gathered and fixed in ice-cold 70% ethanol at 4 °C for 12 hours. The cells were then rinsed with cold Phosphate Buffer Saline (PBS) and incubated for 30 minutes at 37°C in 0.5 mL of PBS after the ethanol was removed. Propidium iodide was used to stain the cells for 30 min while they were in the dark. DNA content was determined using a flow cytometer. […]
# [2] = tested on: BAX gene in MDA-MB-231 cells; test: RT-PCR gene expression, BAX; conditions: 48 h treatment, control = 1
# Experimental: (§5) As well, there was an apparent increase in caspase-3, showing 3.9-fold more expression than in control cells.
# (§6) Fluorometric analysis was used to gauge the level of these genes’ expression. The procedure for the used kit was carried out in accordance with the manufacturer’s instructions, which are detailed in the Supplementary file. […]
# (§7) […] at pH 7.4). The flow cytometer was then used to examine the cells […]
# (§8) 1.4.Estimation of apoptotic and anti-apoptotic gene markers […]
# (§9) such as Bax and caspase-3, as well as anti-apoptotic genes such as Bcl-2, was studied using the BIORAD iScriptTM One-Step RT-PCR kit with SYBR® Green. MDA-MB-231 cells were cultured before being treated for 48 hours […]
# (§10) Fluorometric analysis was used to gauge the level of these genes' expression. The procedure for the used kit was carried out in accordance with the manufacturer's instructions, which are detailed as follows:
# (§11) 1.4.1. RNA isolation and reverse transcription m RNA isolation iscarried out using an RNeasy extraction kit,up to 1 x 10^7 cells, depending on the cell line. Cells are disrupted in RNeasy Lysis Buffer (RLT buffer), homogenized, then ethanol is added to the lysate, creating conditions that promote selective binding of RNA to the RNeasy membrane. […]
# [3] = tested on: Bcl-2 gene in MDA-MB-231 cells; test: RT-PCR gene expression, Bcl-2; conditions: 48 h treatment, control = 1
# Experimental: as §5, §6, §7, §8, §9, §10, §11
# [4] = tested on: caspase-3 gene in MDA-MB-231 cells; test: RT-PCR gene expression, caspase-3; conditions: 48 h treatment, control = 1
# Experimental: as §5, §6, §7, §8, §9, §10, §11
# [5] = tested on: MDA-MB-231 cells; test: Apoptosis screening, annexin V-FITC/PI flow cytometry; conditions: compared to non-treated control MDA-MB-231 cells
# From the text: as §1, §2, §3, §4
# Cytometer and Flowing software were used to count and analyze stained cells. The Supplementary file contains detailed descriptions of the flow cytometric analysis of cell-cycle distribution and cellular apoptosis. […]
# 1.3.2. Apoptosis screening […]
# plate received 1 X 105 conc. breast cancer (MDA-MB-231) cells that were then incubated for 24 hours. The cells […]
# with PBS, and stained for 15 min at room temperature in the dark with annexin V-FITC and PI in binding buffer (10 […]
# µM HEPES, 140 µM NaCl, and 2.5 µM CaCl2 at pH 7.4). […]
# high-quality RNA iseluted in RNase-free water.
# 1.4.2. Master mix preparation
# All the following reagents were mixed together to give a totalvolume (50 μL). 2X SYBR® Green RT-PCR reaction mixture (25 μL), forward primer (10 μM) (1.5 μL), reverse primer (10 μM) (1.5 μL), nuclease-free H2O (11 μL), RNA template (1 pg to 100 ng totalRNA) (10 μL) and iScript reverse transcriptase for One-Step RT-PCR (1 μL).
# 1.4.3. Amplification protocol
# Incubate complete reaction mixture in a real-time thermal detection system (Rotorgene) as follows: cDNA synthesis:
# 10 min at 50 °C, iScript reverse transcriptase inactivation: 5 min at 95 °C, polymerase chain reaction (PCR) cycling and detection (30–45 cycles): 10 s at 95 °C and 30 s at 55 °C to 60 °C (data collection step) and melt curve analysis:
# 1 min at95 °C and 1 min at55 °C and 10 s at55 °C (80 cycles, increasing each by 0.5 °C each cycle).
structure (smiles),measurement,setting,value
"Cn1c(SCC(=O)c2ccccc2)nc(=O)c(/N=C(/CBr)c2ccccc2)c1N [Compound 7, (E)-6-Amino-5-((2-bromo-1-phenylethylidene)amino)-1-methyl-2-((2-oxo-2-phenylethyl)thio)pyrimidin-4(1H)-one]",DNA content % at cell cycle phase %G2/M,[1]; control 9.19%,22.36%
same,DNA content % at cell cycle phase %S,[1]; control 29.53%,28.02%
same,DNA content % at cell cycle phase %G0/G1,[1]; control 61.28%,49.62%
same,Gene expression BAX (apoptotic gene),[2],7.3 fold and 7.325 fold
same,Gene expression Bcl-2 (anti-apoptotic gene),[3],0.30 fold and 0.301 fold
same,Gene expression Caspase-3 (apoptotic gene),[4],3.9 fold and 3.904 fold
same,increase in early apoptosis,[5],58.8 fold
same,increase in total apoptosis,[5],19.3 fold
same,rise of necrotic percent,[5],1.8 fold

# — paper PMC10535864, “Novel Aminopyrimidine-2,4-diones, 2-Thiopyrimidine-4-ones, and 6-Arylpteridines as Dual-Target Inhibitors of BRD4/PLK1: Design, Synthesis, Cytotoxicity, and Computational Studies” (Pharmaceuticals, 2023)
